The target in one experiment is T1, human ROCK1 (Homo sapiens, UniProt Q13464).
T1 construct: His tag (N); host or cells: insect cells (Sf9)
Kind of experiment: Measurement of Rho kinase inhibitory activity (ELISA of MBS phosphorylation). Particulars: human ROCK1, MBS substrate, 100 μM ATP, 30° C. for 10 minutes. The experiment is classed as biochemical. The method in brief: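 N-terminal His-tagged human ROCK1 (1-727, Sf9-expressed) phosphorylated plate-immobilized MBS in 20 mM HEPES pH 7.5, 100 μM ATP, 30° C for 10 minutes. Phospho-MBS detected by antibody ELISA (A490); IC50 is concentration giving 50% inhibition.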
For orientation: ELISA stands for enzyme-linked immunosorbent assay.

In experiment [1] the test system is mouse neuroblastoma cell strain N1E-115. Kind of experiment: Inhibitory effect on neurite retraction (LPA-induced). The experiment is classed as cell-based. The following applies: mouse/rat NG108-15; 10 μM compound, 1 μM LPA, N1E-115 cells. The procedure:
An experiment for Inhibitory effect on neurite retraction using mouse neuroblastoma cell strain N1E-115 was performed according to the method of Hirose, M. et al. (J. Cell. Biol., 141, pp. 1625-1636 (1998)). This method utilizes the fact that LPA (lysophosphatidic acid), which is a endogenous substance, induces neurite retraction, and is a method of evaluating how much a drug can inhibit the LPA-induced neurite retraction and thereby evaluating potency of inhibition of neuronal degeneration and potency of neuronal regeneration of the drug. N1E-115 cells cultured in a DMEM solution containing 20% heat-inactivated fetal bovine serum were plated on a 6-well plate (IWAKI) at a density of 40,000 cells/well, and cultured overnight at 37° C. in the same culture medium in a 5% CO2 incubator. In order to induce differentiation of the N1E 115 cells into nerve cells, the culture medium was changed to the serum-free DMEM solution, and the cells were cultured for 1 or 2 days at 37° C. in the 5% CO2 incubator until most of the cells extended the neurites. On the examination day, each compound of the present invention was added at a final concentration of 10 μM, incubation was performed for 30 minutes, then LPA (Sigma) was added at a final concentration of 1 μM, and incubation was further performed for 10 minutes. To the control, the same volume of phosphate buffered saline as the solvent was added. After completion of the incubation, glutaraldehyde was added at a final concentration of 5% to fix the cells. […] The inhibition rate (%) of each drug was calculated by using the following equation. Inhibition rate(%)=100−(RCP obtained with drug to be evaluated−RCP of control)/(RCP obtained with LPA−RCP of control)×100

Molecules are shown by their SMILES.

IC50 and inhibition data for four compounds are collected here from US7964613B2 (Asahi Kasei Pharma Corporation, priority 2007, dated 2011).

T1 sequence (Q13464 1-727): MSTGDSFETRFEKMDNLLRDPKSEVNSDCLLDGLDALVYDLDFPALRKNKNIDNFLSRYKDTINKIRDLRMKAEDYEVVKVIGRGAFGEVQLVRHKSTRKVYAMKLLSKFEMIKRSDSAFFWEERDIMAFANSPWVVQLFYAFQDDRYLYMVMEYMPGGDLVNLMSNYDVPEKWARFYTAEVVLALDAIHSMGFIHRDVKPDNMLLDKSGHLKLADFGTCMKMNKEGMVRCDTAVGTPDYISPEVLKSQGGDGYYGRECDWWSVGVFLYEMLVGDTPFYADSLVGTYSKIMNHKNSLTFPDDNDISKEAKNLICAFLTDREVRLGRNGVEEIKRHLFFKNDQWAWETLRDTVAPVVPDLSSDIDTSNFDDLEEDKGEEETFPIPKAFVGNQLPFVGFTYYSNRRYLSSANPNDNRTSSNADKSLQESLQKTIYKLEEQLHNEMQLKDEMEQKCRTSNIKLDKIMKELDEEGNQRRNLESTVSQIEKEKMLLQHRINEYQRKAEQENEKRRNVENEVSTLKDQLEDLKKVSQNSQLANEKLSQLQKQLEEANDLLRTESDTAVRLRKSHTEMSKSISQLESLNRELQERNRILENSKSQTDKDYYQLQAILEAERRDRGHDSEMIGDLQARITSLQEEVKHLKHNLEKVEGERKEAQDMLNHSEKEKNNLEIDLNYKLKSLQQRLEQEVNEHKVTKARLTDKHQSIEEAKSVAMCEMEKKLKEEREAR

For orientation: IC50 means the concentration that gives 50% inhibition. High values mean weaker potency in that assay, low ones greater potency in that assay. As usually defined, the inhibition is the relative decrease from the control value, in per cent. A higher inhibition goes with a strong effect. For the compound `CN[C@H]1CCN(S(=O)(=O)c2cccc3cncc(C)c23)C1` [Example 8-3], the IC50 on human ROCK1 is below 1000 nM. In addition, the inhibition at 10 µM in experiment [1] is at least 50%.

Take `N[C@H]1CCN(S(=O)(=O)c2cccc3cncc(Cl)c23)C1` [Example 19-1, (S)-3-Amino-1-(4-chloro-5-isoquinolinesulfonyl)pyrrolidine]: on human ROCK1, the IC50 was below 1000 nM. The compound also returned an inhibition at 10 µM in experiment [1] of at least 50%.

Take `CN[C@H]1CCN(S(=O)(=O)c2cccc3cncc(Cl)c23)C1` [Example 19-3, (S)-1-(4-Chloro-5-isoquinolinesulfonyl)-3-(methylamino)pyrrolidine]: the IC50 on human ROCK1 is below 1000 nM. Also, the inhibition at 10 µM in experiment [1] was at least 50%.

In the case of `CN[C@H]1CCN(S(=O)(=O)c2cccc3c(O)ncc(Cl)c23)C1` [Example 36-1, (S)-1-(1-Hydroxy-4-chloro-5-isoquinolinesulfonyl)-3-(methylamino)pyrrolidine], the IC50 against human ROCK1 was below 1000 nM. In experiment [1], this compound had an inhibition at 10 µM of at least 50%.
